Experimental data taken from patent publication US12239650B2, “Compounds for treating and preventing net associated complications” (The Australian National University, priority 2019, dated 2025).
Like-named read-outs stand apart in the source and are kept apart here.

How the values were obtained:
[1] = test system: histone-induced platelet aggregation; assay: Histone-induced aggregation of isolated platelets; assay type: cell-based, human; details: histones 150 μg/mL, isolated platelets, FIG. 4b
Protocol: In vitro platelet aggregation and degranulation assays. For aggregation studies platelets were isolated from human whole blood collected into Na-citrate vacutainers through 2-step centrifugation at room temperature (200×g for 20 min then the platelet-rich plasma 800×g for 15 min), the platelet pellet resuspended in Hank's balanced salt solution containing calcium and magnesium and histones added and incubated in the presence/absence of compounds at the concentrations of each as indicated. Samples were assessed for degree of platelet aggregation after 15 min exposure to histones by flow cytometry using the characteristic log FSC versus log SSC identification of platelets, with increases in the geometric mean of log FSC indicative of platelet aggregation.

[2] = test system: histones; assay: In-vivo histone toxicity assay; details: mice; for Protection from histone-induced liver damage, generalised tissue injury and kidney failure (circulating ALT, LDH, creatinine): compound i.p. 10 min prior to i.v. histones 50 mg kg^−1, blood 4 h post-histones, concentration-dependent
Protocol: In-vivo histone toxicity assays. BALB/c female mice (5-6 weeks of age), that are more prone to histone-induced anemia and easier to inject i.v. at this young age than C57BL/6 mice, were injected i.p. with test compounds at concentrations indicated 10 min prior to i.v. injection of histones (50 mg kg^−1) in phosphate buffered saline. Retro-orbital bleeds were performed with glass Pasteur pipettes 10 min after histone injection and collected blood added to acid citrate dextrose (ACD), the 10 min blood sample being subjected to hematologic analyses for platelet and erythrocyte content using an ADVIA 2120i Hematology Analyzer. Spleens were also harvested at 10 min post-histone injection and splenic hemoglobin content quantified using a hemoglobin assay kit (Sigma-Aldrich). In the case of 4 h blood samples, male C57/BL/6 mice (6-8 weeks of age) were injected with test compounds and histones as above and plasma isolated and stored frozen for subsequent biochemical testing, with markers for liver (alanine aminotransferase, ALT), kidney (creatinine, Crea) and general tissue (lactate dehydrogenase, LDH) damage being determined by the Department of Pathology, The Canberra Hospital.

[3] = test system: histone-mediated cytotoxicity for HMEC-1; assay: Histone-mediated cytotoxicity assay (PI/Calcein-AM flow cytometry); assay type: cell-based
Protocol: Histone-mediated cytotoxicity assays. To determine the cytotoxicity of calf thymus histones (Sigma-Aldrich), various concentrations of histones (100-800 μg ml^−1) were added to suspensions of HMEC-1 or HUVEC (1×10^6 ml^−1) in 96 well plates and incubated for 1 h at 37° C. Cells were then incubated for 5 min at 37° C. with propidium iodide (PI; 2.5 μg ml^−1) (ThermoFisher Scientific), to detect dead cells, and Calcein-AM (0.04 μM) (ThermoFisher Scientific), to detect viable cells, placed on ice and the percentage of dead and viable cells determined by flow cytometry using gating strategies. In inhibition assays, HMEC-1 were incubated with histones (400 μg ml^−1) for 1 h at 37° C. in the presence of different concentrations of compounds (12.5-400 μg ml^−1) prior to the addition of PI and Calcein-AM. HMEC-1 cytotoxicity at each compound concentration was then determined based on the formula:
[formula] and the IC50 value for each polyanion then determined based on the line of best fit (nonlinear regression analysis) using Prism Software (Graphpad Software). In all assays MTS (IC50 30 μg ml^−1) was included as a standard to compensate for experimental variation, with data being adjusted in each assay to MTS having an IC50 of 30 μg ml^−1.

[4] = test system: histone-mediated RBC aggregation; assay: Histone-mediated erythrocyte aggregation (flow cytometry, scanning EM); assay type: cell-based, human
Protocol: (§1) Human erythrocytes (RBC) were incubated for 1 h at 37° C. alone (‘Saline’ control) or in the presence of histones (400 μg ml^−1) with or without mCBS (200 μg ml^−1). a, Percentage of RBC aggregation measured by flow cytometry based on forward (FSC) and side (SSC) scatter parameters and an appropriate gating strategy to discriminate aggregated from normal (non-aggregated) RBC. b, Scanning electron micrographs depicting level of RBC aggregation at low and high magnification following the three treatments depicted in (a). c, Concentration dependent inhibition of histone-mediated RBC aggregation by mCBS and MTS, in this case RBC aggregation being calculated by flow cytometry as fold increase in RBC auto-fluorescence relative to RBC in the absence of histones. The fold increase values also provide an estimate of the number of RBC in each aggregate. d, Retention of RBC in an artificial spleen that measures RBC deformability. RBC were incubated with increasing concentrations of histones for 1 h and, at the highest concentration used (400 μg ml^−1), also incubated with either mCBS or MTS (100 and 200 μg ml^−1), prior to passage through the artificial spleen. Data are mean±s.e.m. (n=3 biological replicates). ***P<0.001, ****P<0.0001 (one way ANOVA with Dunnett's multiple comparisons test).
In vitro erythrocyte microscopy, aggregation, fragility and deformability assays. […] J Biol Chem 289, 19531-19537 (2014)). Similarly, erythrocyte fragility induced by histones, in the presence or absence of inhibitors, was quantified using a sheer stress assay that we developed recently (Kordbacheh, F., O'Meara, C. H., Coupland, L. A., Lelliott, P. M. & Parish, C. R. Extracellular histones induce erythrocyte fragility and anemia. Blood 130, 2884-2888 (2017)). Finally, the reduced deformability of erythrocytes in the presence of histones and the effect of inhibitors on this process was assessed by measuring the passage of erythrocytes through an artificial human spleen (Kordbacheh, F., O'Meara, C. H., Coupland, L. A., Lelliott, P. M. & Parish, C. R. Extracellular histones induce erythrocyte fragility and anemia. Blood 130, 2884-2888 (2017); and Deplaine, G. et al. The sensing of poorly deformable red blood cells by the human spleen can be mimicked in vitro. Blood 117, e88-95 (2011)).

[5] = test system: histone-induced erythrocyte rigidity; assay: Erythrocyte deformability, passage through artificial spleen; assay type: cell-based, human; details: histones 400 μg ml^−1, compounds 100 and 200 μg ml^−1, FIG. 3d
Protocol: as §1, with “RBC were incubated with increasing concentrations of histones for 1 h and, at the highest concentration used (400 μg ml^−1), also incubated with either mCBS or MTS (100 and 200 μg ml^−1), prior to passage through the artificial spleen. Data are mean±s.e.m. (n=3 biological replicates). ***P<0.001, ****P<0.0001 (one way ANOVA with Dunnett's multiple comparisons test).” left out
In vitro erythrocyte microscopy, aggregation, fragility and deformability assays. […] Similarly, erythrocyte fragility induced by histones, in the presence or absence of inhibitors, was quantified using a sheer stress assay that we developed recently (Kordbacheh, F., O'Meara, C. H., Coupland, L. A., Lelliott, P. M. & Parish, C. R. Extracellular histones induce erythrocyte fragility and anemia. Blood 130, 2884-2888 (2017)). […]

[6] = Rat ischemia reperfusion tissue (skin) flap model; assay type: in vivo; details: rat skin flap IRI, 50 mg kg^−1 i.p., 72 h, FIG. 7d
Text: Rat ischemia reperfusion tissue flap model. The procedure employed is largely based on a previously described method (Bone, R. C. et al. Definitions for sepsis and organ failure and guidelines for the use of innovative therapies in sepsis. The ACCP/SCCM Consensus Conference Committee. American College of Chest Physicians/Society of Critical Care Medicine. Chest 101, 1644-1655 (1992)). Briefly, male Wistar rats were anaesthetized, locally depilated and a 3 cm by 6 cm fasciocutaneous flap was excised leaving the vascular pedicle intact. […] The clamp was removed 10 h post-application permitting returned blood flow to the flap. Test compounds (50 mg kg^−1) or saline were administered i.p. 5 min prior to clamp application and 5 min following its removal. The rats were monitored for a total experimental period of 72 h during which rats received additional compound or saline i.p. at 24 and 48 h post-op. The ‘Control No Clamp’ rats had the tissue flap excised and rubber placed underneath prior to re-suturing, however, the vessel was not clamped and they received saline at the same time points as the other rats. At the end of the experimental period the viability of the flaps was determined by the percentage of black necrotic or reddened areas versus pink viable areas. […]

[7] = test system: anti-proliferative effect of histones on HMEC-1; assay: HMEC-1 proliferation (3H-thymidine) after histone exposure; assay type: cell-based, human; details: compounds 100 μg ml^−1, histones 400 μg ml^−1, FIG. 8b

With `OC[C@H]1O[C@@H](O[C@H]2[C@H](O)[C@@H](O)[C@H](O)O[C@@H]2CO)[C@H](O)[C@@H](O)[C@@H]1O` [CB] the “Inhibition of histone-induced platelet aggregation” value [1] was “non-inhibitory” and the “Protection from histone-induced liver damage, generalised tissue injury and kidney failure (circulating ALT, LDH, creatinine)” value ([2]; FIG. 6a) was “inactive”.
With `CO[C@@H]1O[C@H](COS(=O)(=O)O)[C@@H](OS(=O)(=O)O)[C@H](OS(=O)(=O)O)[C@H]1OS(=O)(=O)O` [methyl β-glucoside per-O-sulfate] the “Inhibition of histone-mediated cytotoxicity for HMEC-1 (endothelial cells)” value (“Inhibition … (endothelial cells)” below) ([3]; compared with heparin, FIG. 2a) was “little or no inhibitory activity”.
With β-O-methyl cellobioside sulfate [mCBS] the “Inhibition … (endothelial cells)” value ([3]; compared with heparin, FIG. 2a) was “as effective as heparin”, the “Prevention of histone-mediated RBC aggregation (auto-fluorescence)” value ([4]; histones 400 μg ml^−1, FIG. 3c) was “prevented aggregation in a concentration dependent manner” and the “Inhibition of histone-induced erythrocyte aggregation (FSC/SSC)” value ([4]; histones 400 μg ml^−1, mCBS 200 μg ml^−1, 1 h 37° C., FIG. 3a, confirmed by scanning EM) was “completely inhibited”. For the same compound, the “Ability of erythrocytes to passage through an artificial spleen” value [5] was “totally restored”, the “Inhibition of histone-induced platelet aggregation” value [1] was “completely inhibited” and the “Histone-induced thrombocytopenia and anaemia” value ([2]; 100 mg kg^−1 i.p., 10 min post-histones, FIG. 6b) was “prevented”. The “Relative potency in protecting from histone-induced tissue pathologies” value ([2]; FIG. 6a) was “equally active”, the “Protection from histone-induced liver damage, generalised tissue injury and kidney failure (circulating ALT, LDH, creatinine)” value ([2]; FIG. 6a) was “protected” and the “Viable area of the skin flap” value [6] was “consistently and significantly increased”. For the same compound, the “Neutralization of anti-proliferative effect of histones on HMEC-1 monolayers” value [7] was “completely neutralized”.
In the case of `O=S(=O)(O)OC[C@H]1OC(OS(=O)(=O)O)[C@H](OS(=O)(=O)O)[C@@H](OS(=O)(=O)O)[C@@H]1OS(=O)(=O)O` (some centres unmarked) [glucose per-O-sulfate], the “Inhibition … (endothelial cells)” value [3] is reported as “little or no inhibitory activity”.
